We go through twelve compounds from article PMC6152134, “Synthesis and In Vitro Anticancer Activity of Novel Dehydroabietic Acid-Based Acylhydrazones” (Molecules : A Journal of Synthetic Chemistry and Natural …, 2017).

Some results are limits rather than exact numbers.

The subject of data set [1] is HL-7702 normal human liver cell line. The experiment in a line: MTT cytotoxicity assay, HL-7702 normal liver cells. It counts as cell-based. On the technique in general: Tetrazolium dyes change colour on reduction, which living cells bring about.
Data set [2] concerns HeLa (epithelial cervical) human carcinoma cell line. The experiment in a line: MTT cytotoxicity assay, HeLa cells. Conditions: 48 h exposure. It counts as cell-based. The procedure: (§1) Compounds 4a–x were evaluated for their cytotoxic activity in vitro against the human cancer cell lines, CNE-2, HepG2, HeLa, and BEL-7402 by using a 3-(4,5-dimethylthiazol-2-yl)-2,5-diphenyl tetrazolium bromide (MTT) colorimetric assay. Cisplatin was included in the experiments as a positive control, and the IC50 of DHA is also presented to compare the anticancer activities. The calculated IC50 values were reported differently according to the different cancer cells.
(§2) The CNE-2, HepG2, HeLa, and BEL-7402 cell lines used in this work were all purchased from the Institute of Biochemistry and Cell Biology, China Academy of Sciences. All were supplemented with 10% heat-inactivated fetal bovine serum in a humidified atmosphere of 5% CO2/95% air at 37 °C. In order to investigate the potential of compounds 4, cisplatin, a commercial classical anticancer drug was used as a reference drug. CNE-2, HepG2, HeLa, and BEL-7402 cells were seeded into 96-well microculture plates and allowed to adhere for 24 h, respectively. After cells were exposed to compounds at concentrations from 100 to 0.1 μM for 48 h, medium was aspirated and replenished with complete medium. IC50 values was evaluated by MTT tetrazolium dye assay. All the tests were repeated in at least three independent experiments. The IC50 values of the compounds were calculated using SPSS Version 10 software (IBM, New York, NY, USA), which defined the IC50 value as the concentration required to inhibit cell growth by 50%.

Data set [3] has as its system CNE-2 (nasopharynx) human carcinoma cell line. The experiment in a line: MTT cytotoxicity assay, CNE-2 cells. The format is cell-based. Conditions: 48 h exposure. As for the experimental part: as §1, §2
For data set [4], the system named is BEL-7402 (liver) human carcinoma cell line. The data set can be described thus: MTT cytotoxicity assay, BEL-7402 cells. The format is cell-based. To be noted: 48 h exposure. As for the experimental part:
as §1, §2

Data set [5] has as its system HepG2 (liver) human carcinoma cell line. The experiment in a line: MTT cytotoxicity assay, HepG2 cells. The format is cell-based. Conditions: 48 h exposure. As for the experimental part: as §1, §2
[6] abbreviates: L02, normal human liver cell HL-7702.

For the compound `CC(C)c1ccc2c(c1)CCC1C(C)(C(=O)OCC(=O)NN=Cc3ccc(Br)cc3)CCCC21C` (stereo not shown) [4m], the melting point – broadly, the temperature of the solid-liquid transition – lay within 188.1 to 188.6 °C. Moreover, in data set [1] (setting [6]), the IC50 (commonly the midpoint of a concentration-inhibition curve) is more than 100 µM. Besides, the 50% inhibitory concentration (IC50) in data set [2] (Homo sapiens, HeLa, 48 h) worked out at 12.8 ± 0.15 µM. The IC50 in data set [3] (Homo sapiens) came to 89.66 ± 0.27 µM. Moreover, in data set [4] (Homo sapiens), the 50% inhibitory concentration (IC50) came to 23.1 ± 0.33 µM. This compound displayed an IC50 in data set [5] (Homo sapiens, HepG2, 48 h) of 9.94 ± 0.59 µM.
For `COc1ccccc1C=NNC(=O)COC(=O)C1(C)CCCC2(C)c3ccc(C(C)C)cc3CCC12` (stereo not shown) [4n], the melting point fell in the range of 190.3 to 191.8 °C. The compound also showed an IC50 in data set [1] (setting [6]) of 70.4 ± 2.23 µM. The 50% inhibitory concentration (IC50) in data set [2] (Homo sapiens, HeLa, 48 h) turned out to be 45.13 ± 0.09 µM. In addition, in data set [3] (Homo sapiens), the half-inhibitory concentration (IC50) was found to be 26.08 ± 0.05 µM. This compound had an IC50 in data set [4] (Homo sapiens) of 23.8 ± 0.51 µM. The same compound yielded an IC50 in data set [5] (Homo sapiens, HepG2, 48 h) of 50.1 ± 0.74 µM.
`COc1cccc(C=NNC(=O)COC(=O)C2(C)CCCC3(C)c4ccc(C(C)C)cc4CCC23)c1` (stereo not shown) [4o] yielded a melting point of 136.7 to 137.9 °C. The compound further returned a concentration for half-maximal inhibition (IC50) in data set [1] (setting [6]) of more than 100 µM. For the same compound, the midpoint of inhibition in data set [2] (Homo sapiens, HeLa, 48 h), the IC50, lay at 32.06 ± 0.21 µM. Besides, inhibition in data set [3] (Homo sapiens) was half-maximal at 86.46 ± 0.13 µM (IC50). The compound also registered an IC50 in data set [4] (Homo sapiens) of 14.8 ± 0.38 µM. Moreover, it took 51.3 ± 0.63 µM to reach half-maximal inhibition in data set [5] (Homo sapiens, HepG2, 48 h) (IC50).
Turning to `COc1ccc(C=NNC(=O)COC(=O)C2(C)CCCC3(C)c4ccc(C(C)C)cc4CCC23)cc1` (stereo not shown) [4p, N’-(4-Methoxybenzylidene)-2-(dehydroabietyloxy)acetohydrazide], the melting point lay within 174.8 to 175.5 °C. Moreover, in data set [1] (setting [6]), the IC50 was found to be 91.8 ± 1.57 µM. Besides, in data set [2] (Homo sapiens, HeLa, 48 h), the half-inhibitory concentration (IC50) was determined as 34.33 ± 0.32 µM. The compound further returned a half-inhibitory concentration (IC50) in data set [3] (Homo sapiens) of 56.98 ± 0.08 µM. In data set [4] (Homo sapiens), this compound showed a 50% inhibitory concentration (IC50) of 55.29 ± 0.44 µM. Moreover, in data set [5] (Homo sapiens, HepG2, 48 h), half-maximal inhibition (IC50) required 48.59 ± 0.09 µM.
Take `CC(C)c1ccc2c(c1)CCC1C(C)(C(=O)OCC(=O)NN=Cc3ccccc3F)CCCC21C` (stereo not shown) [4q, Dehydroabietic acid-based 2-fluorophenyl acylhydrazone]: the melting point is 130.2 to 130.5 °C. This compound also registered an IC50 in data set [1] (setting [6]) of more than 100 µM. In data set [2] (Homo sapiens, HeLa, 48 h), this compound gave an IC50 of 27.71 ± 0.14 µM. The same compound had an IC50 in data set [3] (Homo sapiens) of 27.4 ± 0.72 µM. 22.8 ± 0.34 µM corresponded to half-maximal inhibition in data set [4] (Homo sapiens) (IC50). This compound yielded a half-inhibitory concentration (IC50) in data set [5] (Homo sapiens, HepG2, 48 h) of 93.76 ± 0.39 µM.
Consider `CC(C)c1ccc2c(c1)CCC1C(C)(C(=O)OCC(=O)NN=Cc3cccc(F)c3)CCCC21C` (stereo not shown) [4r], for which the melting point is 166 to 167.3 °C. Inhibition in data set [1] (setting [6]) was half-maximal at 68.6 ± 1.25 µM (IC50). This compound also yielded an IC50 in data set [2] (Homo sapiens, HeLa, 48 h) of 12.8 ± 0.13 µM. In data set [3] (Homo sapiens), the IC50 was 51 ± 0.94 µM. In data set [4] (Homo sapiens), this compound yielded an IC50 of 25.9 ± 0.53 µM. Also, the IC50 in data set [5] (Homo sapiens, HepG2, 48 h) is 31.6 ± 0.47 µM.
On to `CC(C)c1ccc2c(c1)CCC1C(C)(C(=O)OCC(=O)NN=Cc3ccc(F)cc3)CCCC21C` (stereo not shown) [4s], for which the melting point lay in the range of 169.2 to 170.5 °C. This compound came in with an IC50 in data set [1] (setting [6]) of more than 100 µM. Moreover, it took 28.79 ± 0.24 µM to reach half-maximal inhibition in data set [2] (Homo sapiens, HeLa, 48 h) (IC50). For the same compound, the midpoint of inhibition in data set [3] (Homo sapiens), the IC50, lay at 49.81 ± 0.49 µM. The compound also displayed an IC50 in data set [4] (Homo sapiens) of 25.22 ± 0.22 µM. Moreover, the IC50 in data set [5] (Homo sapiens, HepG2, 48 h) came out at 90.08 ± 0.33 µM.
The compound `CC(C)c1ccc2c(c1)CCC1C(C)(C(=O)OCC(=O)NN=Cc3cccc(F)c3F)CCCC21C` (stereo not shown) [4t] registered a melting point of 150.2 to 153.5 °C. The compound further displayed an IC50 in data set [1] (setting [6]) of 72 ± 1.66 µM. The compound also showed a half-inhibitory concentration (IC50) in data set [2] (Homo sapiens, HeLa, 48 h) of 11.1 ± 0.15 µM. The same compound displayed a half-inhibitory concentration (IC50) in data set [3] (Homo sapiens) of 33.3 ± 0.56 µM. This compound also returned a half-inhibitory concentration (IC50) in data set [4] (Homo sapiens) of 18.8 ± 0.59 µM. Besides, inhibition in data set [5] (Homo sapiens, HepG2, 48 h) was half-maximal at 22.89 ± 0.04 µM (IC50).
In the case of `CC(C)c1ccc2c(c1)CCC1C(C)(C(=O)OCC(=O)NN=Cc3ccc(F)cc3F)CCCC21C` (stereo not shown) [4u, N’-(2,4-Difluorobenzylidene)-2-(dehydroabietyloxy)acetohydrazide], the melting point fell in the range of 181.9 to 184.5 °C. Moreover, the 50% inhibitory concentration (IC50) in data set [1] (setting [6]) is 55.8 ± 1.38 µM. In data set [2] (Homo sapiens, HeLa, 48 h), the IC50 stood at 5.86 ± 0.09 µM. The compound also displayed an IC50 in data set [3] (Homo sapiens) of 32.83 ± 0.16 µM. The 50% inhibitory concentration (IC50) in data set [4] (Homo sapiens) was determined as 18.6 ± 0.37 µM. Besides, in data set [5] (Homo sapiens, HepG2, 48 h), the midpoint of inhibition, the IC50, lay at 25.4 ± 0.54 µM.
With `CC(C)c1ccc2c(c1)CCC1C(C)(C(=O)OCC(=O)NN=Cc3c(F)cccc3F)CCCC21C` (stereo not shown) [4v], the melting point was 107.3 to 110 °C. The IC50 in data set [1] (setting [6]) turned out to be 44.6 ± 2.02 µM. Also, the IC50 in data set [2] (Homo sapiens, HeLa, 48 h) amounted to 15 ± 0.21 µM. Moreover, in data set [3] (Homo sapiens), the half-maximal inhibitory concentration (IC50) was 26.8 ± 0.46 µM. In data set [4] (Homo sapiens), this compound showed a half-maximal inhibitory concentration (IC50) of 20.5 ± 0.53 µM. Further, the IC50 in data set [5] (Homo sapiens, HepG2, 48 h) is 16.9 ± 0.18 µM.
In the case of `N.N.[Cl][Pt][Cl]` [Cisplatin, cisplatin, reference compound], the concentration for half-maximal inhibition (IC50) in data set [1] (normal human liver cell HL-7702) stood at 20.8 ± 0.83 µM; in data set [2], 1.94 ± 0.2 µM; in data set [3], 8.75 ± 0.24 µM; in data set [4] it was 12.7 ± 0.33 µM; in data set [5], 6.42 ± 0.18 µM.
On to `CC(C)c1ccc2c(c1)CC[C@H]1[C@](C)(C(=O)O)CCC[C@]21C` [DHA, dehydroabietic acid], for which the concentration for half-maximal inhibition (IC50) in data set [1] (setting [6]) was more than 100 µM; in data set [2] (Homo sapiens, HeLa, 48 h) it was 37.4 ± 0.64 µM; in data set [3] (Homo sapiens) it was 88.64 ± 0.73 µM; in data set [4] (Homo sapiens) it was 46.7 ± 0.55 µM; in data set [5] (Homo sapiens, HepG2, 48 h), 80.4 ± 0.84 µM.
